Test results from ChEMBL document CHEMBL3596141, “Isolation and Structure Elucidation of Fujikurins A-D: Products of the PKS19 Gene Cluster in Fusarium fujikuroi” (J Nat Prod, 2015).
Activity calls are given as the source filed them. The calls are words filed in the database; no cut-off is given here.

Tested on: HepG2
Experiment: Cytotoxicity against human HepG2 cells assessed as cell viability up to 100 uM after 48 hrs by CCK-8 assay
Type: functional, cell-based

`CCC(C)C(=O)C1=C(O)C(C)C(C)OC1=O` (stereo unspecified) was tested, and the Activity was “inactive”.
